Active and inactive are the calls of the source. The calls are words filed in the database; no cut-off is given here.

This note sets out measurements from ChEMBL document CHEMBL3808329, “Increase of rutin antioxidant activity by generating Maillard reaction products with lysine” (Bioorg Med Chem Lett, 2016).

Data set [1] can be described thus: Metal chelating activity assessed as Cu2+ reducing activity at 120 degC after 4 hrs in presence of lysine. The format is physicochemical.
Data set [2] is described as follows: Drug metabolism assessed as increase in total phenolics at 120 degC after 4 hrs in presence of lysine by Folin-Ciocalteu method. The format is physicochemical.
Data set [3] is described as follows: Antioxidant activity assessed as DPPH scavenging activity at 20 to 100 ug/ml after 4 hrs in presence of lysine by spectrophotometric method. Type of data set: physicochemical. Background: Loss of DPPH colour is used to gauge radical scavenging.
Data set [4] relates to HepG2. The data set is described as follows: Antioxidant activity in human HepG2 cells assessed as reduction in Cu2+ induced oxidative stress at 50 to 200 ug/ml preincubated for 30 mins at 120 degC using DCFH-DA in presence of lysine by fluorescence assay. The format is functional, cell-based.
Data set [5] can be described thus: Antioxidant activity assessed as DPPH scavenging activity at 20 to 100 ug/ml and 120 degC after 4 hrs by spectrophotometric method. The format is physicochemical.
Data set [6] can be described thus: Antioxidant activity assessed as DPPH scavenging activity at 60 ug/ml and 120 degC after 4 hrs by spectrophotometric method. Type of data set: physicochemical.
For data set [7], the system named is HepG2. Kind of data set: Antioxidant activity in human HepG2 cells assessed as increase in Cu/Zn SOD activity at 200 ug/ml in presence of lysine at 120 degC after 4 hrs relative to control. The format is functional, cell-based.
Data set [8] can be described thus: Retention time of compound by HPLC method. Type of data set: physicochemical.
Data set [9] concerns HepG2. Kind of data set: Induction of Cu/Zn SOD gene expression in human HepG2 cells at 100 to 300 ug/ml at 120 degC after 4 hrs in presence of lysine by western blot analysis. The format is functional, cell-based. (Immunoblotting shows a protein as a band on a membrane.)
Data set [10] can be described thus: Antioxidant activity assessed as DPPH scavenging activity at 60 to 100 ug/ml and 120 degC after 4 hrs in presence of lysine by spectrophotometric method. Type of data set: physicochemical.
Data set [11] concerns HepG2. The data set is described as follows: Antioxidant activity in human HepG2 cells assessed as increase in Cu/Zn SOD activity at 200 ug/ml at 120 degC after 4 hrs relative to control. Type of data set: functional, cell-based.
The subject of data set [12] is HepG2. Kind of data set: Antioxidant activity in human HepG2 cells assessed as reduction in Cu2+ induced oxidative stress at 50 to 200 ug/ml preincubated for 30 mins using DCFH-DA by fluorescence assay. Type of data set: functional, cell-based.
Data set [13] concerns HepG2. Kind of data set: Antioxidant activity in human HepG2 cells assessed as reduction in Cu2+ induced oxidative stress at 50 to 200 ug/ml preincubated for 30 mins in presence of lysine using DCFH-DA by fluorescence assay. Type of data set: functional, cell-based.

On to `C[C@@H]1O[C@@H](N[C@@H](CCCCN)C(=O)O)[C@H](O)[C@H](O)[C@H]1O`, for which the result in [1], in [3] and in [5] was Active. Moreover, the Drug metabolism entry in data set [2] is recorded as “metabolite_detected”. In data set [4], the outcome was Active.
For `O=C1O[C@H]([C@@H](O)CO)C(O)=C1O` [ASCORBIC ACID], the Activity in data set [6] amounted to 90.6%.
Regarding `NCCCC[C@H](N[C@@H]1O[C@H](CO)[C@@H](O)[C@H](O)[C@H]1O)C(=O)O`, the outcome in data set [1], in data set [3] and in data set [5] was Active. Also, the Drug metabolism result in [2] is “metabolite_detected”. Also, in data set [4], the outcome was Active.
With `C[C@@H]1O[C@@H](OC[C@H]2O[C@@H](Oc3c(-c4ccc(O)c(O)c4)oc4cc(O)cc(O)c4c3=O)[C@H](O)[C@@H](O)[C@@H]2O)[C@H](O)[C@H](O)[C@H]1O` [RUTIN], the results for the Activity entry in data set [1], in data set [3] and in data set [10] were “Active”, “Dose-dependent effect” and “Active”, respectively. Also, the outcome in data set [7], in [9], in data set [4] and in data set [11] was Active. The Drug metabolism result in data set [2] is on record as “metabolite_detected”. This molecule also displayed a Retention_time in [8] of 8.94 min. For the same molecule, the inhibition result in data set [12] and in data set [13] was “inactive” each time.
`NCCCC[C@H](N)C(=O)O` [LYSINE]: the Retention_time in [8] was found to be 2.01 min.
